# Source: article PMC2732992 (Proteins, 2009)
# Key:
# [1] = tested on: GluR2o / GluR3o expressed in insect cells; details: cited from earlier work; for Affinity for GluR2o higher than for GluR3o: receptors expressed in insect cells
# GluR2o S1S2 domain = GluR2o S1S2 domain (Rattus norvegicus, UniProt P19491, DEL528-650/S652T/V651G); test: Inhibition of [3H]AMPA binding to GluR2o S1S2; details: GluR2 S1S2 vs GluR3 S1S2, inhibition of [3H]AMPA binding
smiles,measurement,setting,value
"NC(Cc1onc(O)c1Cl)C(=O)O (stereo not shown) [Cl-HIBO, 4-chlorohomoibotenic acid]",Affinity of homomeric GluR2 greater than GluR3,"[1]; homomeric receptors, same expression system (insect cells)",approximately 100 fold
same,Difference in affinity (IC50) between GluR2 S1S2 and GluR3 S1S2,GluR2o S1S2 domain,ten-fold
N[C@@H](Cn1cc(F)c(=O)[nH]c1=O)C(=O)O [fluorowillardiine],Affinity for GluR2o higher than for GluR3o,[1],10 fold
N[C@@H](Cn1ccc(=O)[nH]c1=O)C(=O)O [willardiine],Affinity for GluR2o higher than for GluR3o,[1],10 fold
